The subject of assay [1] is rURAT1. More on the design: method as in PMID 21074513. The note with it: cited from earlier work.
Assay [2] has as its system hURAT1. The following applies: cited from earlier work.
The target in assay [3] is T1, r-L18V rURAT1 point mutant (Rattus norvegicus, UniProt Q3ZAV1, L18V).
T1 sequence (Q3ZAV1 1-553 L18V): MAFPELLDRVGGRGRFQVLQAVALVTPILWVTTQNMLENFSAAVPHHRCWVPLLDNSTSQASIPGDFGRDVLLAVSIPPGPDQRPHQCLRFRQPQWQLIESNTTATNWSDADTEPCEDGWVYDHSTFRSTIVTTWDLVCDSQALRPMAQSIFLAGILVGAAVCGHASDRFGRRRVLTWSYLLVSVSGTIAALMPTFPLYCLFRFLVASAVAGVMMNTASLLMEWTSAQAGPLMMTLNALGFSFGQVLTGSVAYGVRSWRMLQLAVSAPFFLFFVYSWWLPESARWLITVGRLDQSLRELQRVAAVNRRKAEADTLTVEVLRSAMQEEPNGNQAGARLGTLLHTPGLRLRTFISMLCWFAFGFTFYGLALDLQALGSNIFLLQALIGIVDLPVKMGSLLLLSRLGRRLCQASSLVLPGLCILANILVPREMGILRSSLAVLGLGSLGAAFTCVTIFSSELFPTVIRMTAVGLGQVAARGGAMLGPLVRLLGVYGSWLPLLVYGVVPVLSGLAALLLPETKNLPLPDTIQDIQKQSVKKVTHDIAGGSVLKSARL
In words: URAT1 uric acid transport activity assay. The assay is classed as cell-based. The procedure, abridged:
(§1)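 Rat URAT1 point or double mutants in pCMV6/neo were transiently transfected into cells and assayed the next day. Compounds were preincubated for 5 minutes, then 100 μM 14C-uric acid uptake was measured over 10 minutes in triplicate. IC50 came from four-parameter variable-slope nonlinear regression.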

Assay [4] deals with T2, r-V25M rURAT1 point mutant (Rattus norvegicus, UniProt Q3ZAV1, V25M).
T2 construct: expressed in transfected cells; host or cells: HEK-293T
T2 sequence (Q3ZAV1 1-553 V25M): T1 sequence (Q3ZAV1 1-553 L18V) with V18L, V25M
Kind of assay: URAT1 uric acid transport activity assay. Type of assay: cell-based. In short, it runs like this: as §1

For assay [5], the target named is T3, r-V31L rURAT1 point mutant (Rattus norvegicus, UniProt Q3ZAV1, V31L).
T3 construct: expressed in transfected cells; host or cells: HEK-293T
T3 sequence (Q3ZAV1 1-553 V31L): T1 sequence (Q3ZAV1 1-553 L18V) with V18L, V31L
Kind of assay: URAT1 uric acid transport activity assay. The assay is classed as cell-based. In short, it runs like this: as §1

Where [6] appears, read: read-out: Km for the substrate urate.

Substitutions are numbered along the chain they refer to. Like-named read-outs stand apart in the source and are kept apart here.

As a reminder, the IC50 is the concentration that gives 50% inhibition. `CCc1oc2ccccc2c1C(=O)c1cc(Br)c(O)c(Br)c1` [benzbromarone]: the IC50 was 11.9 µM in assay [1]; […] in assay [2]; 24 ± 3.1 µM in assay [3]; 11 ± 2.7 µM in assay [4]; 17 ± 3.4 µM in assay [5].

Take `O=C(O)CSc1nnc(Br)n1-c1ccc(C2CC2)c2ccccc12` [lesinurad, 2-((5-bromo-4-(4-cyclopropylnaphthalen-1-yl)-4H-1,2,4-triazol-3-yl)thio)acetic acid]: the IC50 in assay [3] (r-L18V, MES pH 5.5, 100 μM 14C-uric acid, read-out: IC50 (uric acid transport)) was 78 ± 6.6 µM; in assay [4] (r-V25M, MES pH 5.5, 100 μM 14C-uric acid, read-out: IC50 (uric acid transport)), 59 ± 17 µM; in assay [5] (r-V31L, MES pH 5.5, 100 μM 14C-uric acid, read-out: IC50 (uric acid transport)) it was 85 ± 4.5 µM.

Take `O=C1C(CC[S+]([O-])c2ccccc2)C(=O)N(c2ccccc2)N1c1ccccc1` (centres unmarked) [sulfinpyrazone]: the 50% inhibitory concentration (IC50) in assay [3] (r-L18V, HEPES pH 7.3, 100 μM 14C-uric acid, read-out: IC50 (uric acid transport)) is 971 ± 89 µM; in assay [4] (r-V25M, HEPES pH 7.3, 100 μM 14C-uric acid, read-out: IC50 (uric acid transport)), 14 ± 2.3 µM; in assay [5] (r-V31L, HEPES pH 7.3, 100 μM 14C-uric acid, read-out: IC50 (uric acid transport)), 266 ± 70 µM. The “fold increased affinity of r-V25M compared to rURAT1” value in assay [4] (from IC50 values) was 49 fold.

What is called Km is the concentration of substrate that gives half-maximal velocity. As for `O=c1[nH]c(=O)c2[nH]c(=O)[nH]c2[nH]1` [uric acid], the figures for the Km in assay [1] (setting [6]) and in assay [2] (setting [6]) were 1.77 mM and 371 µM, respectively.

These data come from article PMC5054527, “Mechanism of high affinity inhibition of the human urate transporter URAT1” (Scientific Reports, 2016).
